From patent US20080318949A1, “Pyrazolopyrimidinone Derivatives, Their Preparation And Their Use” (Topharman Shanghai Co., Ltd, priority 2005, published 2008)
pIC50: −log10 of the molar value.

Tests used:
rat corpora cavernosa = test: Pharmacodynamic test: intracavernous pressure on electric stimulation of the cavernous nerve; format: in vivo; details: anesthetized male SD rats, 5 mg/kg orally, ratio of ICP to MBp
Experimental: The test was carried out based on the methods reported (International Journal of Impotence Research 2002, 14, 251 and The Journal of Urology 1992, 147, 1124). After fasted for 12 hours, 4 male SD rats were randomized into each group. After anesthetizing the rats with sodium pentobarbital (50 mg/kg, i.p.), the penile skin was incised and the prepuce was degloved to expose completely the corpora cavernosa (CC). A needle linked to an electrophysiology instrument was inserted into the CC on the right side in order to measure the intracavernous pressure (ICP). The right carotid artery was cannulated in a similar manner to the polyethylene tube in order to monitor the mean blood pressure (MBp) continuously. […] Electric stimulation was performed at 2 Hz, for 60 s with a pulse duration of 5 ms and 3V using a stimulator. The compounds were administrated orally (5 mg/kg). The change of the ICP and MBp were monitored continuously before and after the administration. The effect of the compounds on the erection induced by electric stimulation was evaluated by the ratio of ICP to MBp. The parameter (ICP/MBp) was used to estimate the influence of the compounds to the rat corpora cavernosa. […] The statistical significance of the differences between groups was calculated using Duncan's multiple comparison.

PDE3 = target: T1, PDE3 (Homo sapiens, UniProt Q14432); test: PDE3 inhibitory activity test (scintillation proximity assay); format: biochemical; details: PDE3 isolated from human platelets
T1 construct: from tissue; host or cells: human platelets
T1 sequence (Q14432 whole entry): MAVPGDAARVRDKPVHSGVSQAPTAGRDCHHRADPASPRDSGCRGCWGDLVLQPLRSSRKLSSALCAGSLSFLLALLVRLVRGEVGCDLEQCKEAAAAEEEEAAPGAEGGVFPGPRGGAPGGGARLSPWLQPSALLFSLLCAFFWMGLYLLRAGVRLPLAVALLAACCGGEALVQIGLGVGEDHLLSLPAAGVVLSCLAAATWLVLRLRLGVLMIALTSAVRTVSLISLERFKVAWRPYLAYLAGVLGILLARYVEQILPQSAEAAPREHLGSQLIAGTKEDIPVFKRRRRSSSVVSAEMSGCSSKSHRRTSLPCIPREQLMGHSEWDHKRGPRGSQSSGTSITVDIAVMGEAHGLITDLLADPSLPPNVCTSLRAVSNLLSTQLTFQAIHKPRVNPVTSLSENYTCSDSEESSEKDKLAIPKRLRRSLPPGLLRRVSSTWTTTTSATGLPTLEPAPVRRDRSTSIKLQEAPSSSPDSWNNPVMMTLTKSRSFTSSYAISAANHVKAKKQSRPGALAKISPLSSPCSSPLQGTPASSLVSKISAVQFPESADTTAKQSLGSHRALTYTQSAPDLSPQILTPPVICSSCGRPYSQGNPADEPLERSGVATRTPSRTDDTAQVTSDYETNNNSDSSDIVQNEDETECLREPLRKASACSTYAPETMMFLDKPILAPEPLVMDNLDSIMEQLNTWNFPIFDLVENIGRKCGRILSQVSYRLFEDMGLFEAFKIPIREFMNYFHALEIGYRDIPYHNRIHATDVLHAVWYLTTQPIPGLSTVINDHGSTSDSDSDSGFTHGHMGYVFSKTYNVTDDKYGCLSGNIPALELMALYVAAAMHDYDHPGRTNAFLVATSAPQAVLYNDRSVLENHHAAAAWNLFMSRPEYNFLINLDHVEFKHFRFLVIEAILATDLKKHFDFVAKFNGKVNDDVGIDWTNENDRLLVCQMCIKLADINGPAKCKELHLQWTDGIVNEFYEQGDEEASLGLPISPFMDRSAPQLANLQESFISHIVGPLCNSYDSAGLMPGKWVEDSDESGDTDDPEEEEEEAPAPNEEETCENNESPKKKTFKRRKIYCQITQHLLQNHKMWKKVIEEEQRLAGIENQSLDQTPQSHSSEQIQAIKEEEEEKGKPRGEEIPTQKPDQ
Description: (§1) The PDE5 and PDE3 were isolated form human platelets, while the PDE6 was isolated form bovine retinas. The enzyme inhibitory activity test conducted immediately after the enzymes had been isolated, using a scintillation proximity assay for the direct detection of AMP/GMP by the TRKQ7100 and TRKQ7090 kit. In summary, the effect of PDE inhibitors was investigated by assaying a fixed amount of enzyme in the presence of varying inhibitor concentrations and low substrate. The final assay volume was made up to 100 μl with 10 μl assay buffer (50 mM Tris/HCl PH 7.5, 8.3 mM MgCl2, 1.7 mM EGTA), and water. Reactions were initiated with enzyme, incubate for 30 minutes at 30° C. and terminated with 50 μl yttrium silicate SPA beads suspension containing zinc sulphate. Shook for 20 minutes and settled for 30 minutes in the dark, then counted on a BECKMAN LS6500 MULTI-PURPOSE SCINTILLATION COUNTER. The IC50 value for the compounds according the present invention was calculated according the counts.
PDE3 is a PDE isozyme distributed mainly in heart, so the inhibiting of PDE3 may lead to side effects associated with heart. Accordingly, the inhibitory activities of some example compounds according to the invention against PDE3 were determined.

[1] = target: T2, PDE5 from human platelets (Homo sapiens, UniProt O76074); test: PDE5 inhibitory activity test (scintillation proximity assay); format: biochemical
T2 construct: from tissue; host or cells: human platelets
Description: as §1
According to the above-mentioned method, the inhibitory activities of some compounds of formula IA and IB according to the invention against PDE5 from human platelets were determined.

male KM mouse = test: Acute oral toxicity test; format: in vivo; details: single oral dose of 3 g/kg, 10 or 11 mice per group
Experimental: In this test male KM mouse weighting 18-22 g were used, and 10 or 11 mouse were assigned randomly to each group. […] The animals were fasted for 12 hours before the administration.

PDE6 from bovine retina = target: T3, PDE6 from bovine retina (Bos taurus, UniProt P11541+P23439); test: PDE6 inhibitory activity test (scintillation proximity assay); format: biochemical; details: for pIC50: PDE6 from bovine retina; for PDE6 IC50/PDE5 IC50: selectivity of PDE5 versus PDE6
T3 construct: the PDE6 was isolated form bovine retinas; from tissue; host or cells: bovine retina
T3 sequence (P11541 2-856 limits assumed): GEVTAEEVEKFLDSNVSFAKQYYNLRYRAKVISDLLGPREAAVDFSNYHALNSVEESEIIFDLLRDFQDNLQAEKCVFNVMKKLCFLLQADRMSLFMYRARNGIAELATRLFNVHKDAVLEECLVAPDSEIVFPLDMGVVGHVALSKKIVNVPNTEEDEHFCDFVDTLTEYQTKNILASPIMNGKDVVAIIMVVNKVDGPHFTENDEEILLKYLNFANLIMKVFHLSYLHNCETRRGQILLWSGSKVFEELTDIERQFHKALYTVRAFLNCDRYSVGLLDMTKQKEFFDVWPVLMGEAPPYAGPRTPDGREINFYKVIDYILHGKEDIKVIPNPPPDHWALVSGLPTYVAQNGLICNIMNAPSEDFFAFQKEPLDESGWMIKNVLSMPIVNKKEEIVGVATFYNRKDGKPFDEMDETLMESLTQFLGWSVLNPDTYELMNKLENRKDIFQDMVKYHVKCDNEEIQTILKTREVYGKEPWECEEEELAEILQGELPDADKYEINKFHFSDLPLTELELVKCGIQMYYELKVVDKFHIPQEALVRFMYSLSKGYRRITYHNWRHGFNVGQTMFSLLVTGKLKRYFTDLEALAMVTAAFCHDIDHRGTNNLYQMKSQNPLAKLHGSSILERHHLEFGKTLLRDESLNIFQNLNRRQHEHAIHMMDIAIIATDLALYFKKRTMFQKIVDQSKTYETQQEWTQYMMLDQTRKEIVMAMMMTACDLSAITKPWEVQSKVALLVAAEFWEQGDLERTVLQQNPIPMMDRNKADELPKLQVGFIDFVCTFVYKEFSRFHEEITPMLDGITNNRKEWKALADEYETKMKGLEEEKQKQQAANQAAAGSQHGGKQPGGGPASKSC
T3 sequence (P23439 2-850 limits assumed): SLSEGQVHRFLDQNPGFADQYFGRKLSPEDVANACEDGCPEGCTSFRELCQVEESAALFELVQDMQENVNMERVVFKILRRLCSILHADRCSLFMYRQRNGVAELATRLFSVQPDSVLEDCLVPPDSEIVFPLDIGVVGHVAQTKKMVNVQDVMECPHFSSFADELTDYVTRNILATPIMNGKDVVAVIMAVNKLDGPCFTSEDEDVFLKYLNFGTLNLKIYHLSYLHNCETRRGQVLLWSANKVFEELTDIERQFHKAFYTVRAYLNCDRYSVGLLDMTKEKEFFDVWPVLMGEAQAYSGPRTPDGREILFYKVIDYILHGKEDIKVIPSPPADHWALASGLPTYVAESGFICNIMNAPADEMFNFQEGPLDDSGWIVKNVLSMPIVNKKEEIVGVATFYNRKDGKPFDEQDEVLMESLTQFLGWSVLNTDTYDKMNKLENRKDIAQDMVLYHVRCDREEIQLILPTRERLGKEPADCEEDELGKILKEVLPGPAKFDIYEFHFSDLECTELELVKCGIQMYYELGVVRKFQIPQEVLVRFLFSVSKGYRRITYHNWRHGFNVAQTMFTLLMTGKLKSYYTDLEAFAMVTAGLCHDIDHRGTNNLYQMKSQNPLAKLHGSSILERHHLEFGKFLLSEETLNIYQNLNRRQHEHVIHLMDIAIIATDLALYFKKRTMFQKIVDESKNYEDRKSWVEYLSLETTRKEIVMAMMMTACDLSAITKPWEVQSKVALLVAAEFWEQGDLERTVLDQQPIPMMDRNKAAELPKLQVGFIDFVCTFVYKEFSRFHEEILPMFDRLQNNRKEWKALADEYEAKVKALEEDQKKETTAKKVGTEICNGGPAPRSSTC
Description: as §1

[2] = PDE5 in the PDE6 selectivity table

SMILES	ICP/BP (rat corpora cavernosa)	pIC50 (PDE3)	pIC50 ([1]; PDE5 from human platelets)	pIC50 [1, 2]	Number of death (male KM mouse)	mortality rate (male KM mouse) [%]	pIC50 (PDE6 from bovine retina)	PDE6 IC50/PDE5 IC50 (PDE6 from bovine retina)
CCCOc1ccc(S(=O)(=O)N(C)CCOC(C)=O)cc1-c1nc2c(CCC)nn(C)c2c(=O)[nH]1 [Example 33, 1-methyl-5-{2-propoxy-5-[[1-methyl-1-(2-acetoxyethyl)]amidosulfonyl]phenyl}-3-n-propyl-1,6-dihydro-7H-pyrazolo[4,3-d]pyrimidin-7-one]	72.3 ± 28.6	4.52						
CCCOc1ccc(S(=O)(=O)N(CC)CCN2CCOCC2)cc1-c1nc2c(CC)nn(C)c2c(=O)[nH]1 [Example 54, 1-methyl-5-{2-propoxy-5-[[1-ethyl-1-(2-morpholin-1-yl)ethyl]amidosulfonyl]phenyl}-3-ethyl-1,6-dihydro-7H-pyrazolo[4,3-d]pyrimidin-7-one]	86.3 ± 6.4	4.79	8.01	8.01	0	0	6.63	23.9
CCCOc1ccc(S(=O)(=O)N(CCN2CCOCC2)Cc2cccnc2)cc1-c1nc2c(CCC)nn(C)c2c(=O)[nH]1 [Example 62, 1-methyl-5-{2-propoxy-5-[[1-(3-pyridylmethyl)-1-(2-morpholin-1-yl)ethyl]amidosulfonyl]phenyl}-3-n-propyl-1,6-dihydro-7H-pyrazolo[4,3-d]pyrimidin-7-one]	69.8 ± 12.2	5.54			6	60		
CCCOc1ccc(S(=O)(=O)N(CCN2CCCC2)Cc2cccnc2)cc1-c1nc2c(CCC)nn(C)c2c(=O)[nH]1 [Example 89, 1-methyl-5-{2-propoxy-5-[[1-(3-pyridylmethyl)-1-(2-pyrrolidin-1-yl)ethyl]amidosulfonyl]phenyl}-3-n-propyl-1,6-dihydro-7H-pyrazolo[4,3-d]pyrimidin-7-one]	70.9 ± 9.8		8.11	8.11	5	45	6.67	27.4
CCCOc1ccc(S(=O)(=O)N(CCCO)CCCOC(C)=O)cc1-c1nc2c(CCC)nn(C)c2c(=O)[nH]1 [Example 92, 1-methyl-5-{2-propoxy-5-[[1-(3-acetoxypropyl)-1-(3-hydroxypropyl)]amidosulfonyl]phenyl}-3-n-propyl-1,6-dihydro-7H-pyrazolol[4,3-d]pyrimidin-7-one]	86.4 ± 4.8	4.98	8.41	8.41	0	0	6.59	66.0
CCCOc1ccc(S(=O)(=O)N(CCCOC(C)=O)CCCOC(C)=O)cc1-c1nc2c(CCC)nn(C)c2c(=O)[nH]1 [Example 93, 1-methyl-5-{2-propoxy-5-[bis(3-acetoxypropyl)amidosulfonyl]phenyl}-3-n-propyl-1,6-dihydro-7H-pyrazolo[4,3-d]pyrimidin-7-one]	77.2 ± 24.8	5.22	8.42		0	0		
CCCOc1ccc(S(=O)(=O)N(CCOC(C)=O)CCN2CCOCC2)cc1-c1nc2c(CCC)nn(C)c2c(=O)[nH]1 [Example 96, 1-methyl-5-{2-propoxy-5-[[1-(2-acetoxyethyl)-1-(2-morpholin-1-yl)ethyl]amidosulfonyl]phenyl}-3-n-propyl-1,6-dihydro-7H-pyrazolo[4,3-d]pyrimidin-7-one]	81.0 ± 9.5	4.91	8.37	8.37	0	0	6.61	57.7
CCCOc1ccc(S(=O)(=O)N(CC)CCCOC(C)=O)cc1-c1nc2c(CCC)nn(C)c2c(=O)[nH]1 [Example 97, 1-methyl-5-{2-propoxy-5-[[1-ethyl-1-(3-acetoxypropyl)]amidosulfonyl]phenyl}-3-n-propyl-1,6-dihydro-7H-pyrazolo[4,3-d]pyrimidin-7-one]	72.0 ± 13.5	5.29	7.88		5	45		
CCCOc1ccc(S(=O)(=O)N(CCOCC)CCN2CCOCC2)cc1-c1nc2c(CCC)nn(C)c2c(=O)[nH]1 [Example 111, 1-methyl-5-{2-propoxy-5-[[1-(2-ethoxyethyl)-1-(2-morpholin-1-yl)ethyl]amidosulfonyl]phenyl}-3-n-propyl-1,6-dihydro-7H-pyrazolo[4,3-d]pyrimidin-7-one]	89.1 ± 6.9	5.06	8.17		0	0		
CCCOc1ccc(S(=O)(=O)N(CCCOC)CCCOC(C)=O)cc1-c1nc2c(CCC)nn(C)c2c(=O)[nH]1 [Example 118, 1-methyl-5-{2-propoxy-5-[[1-(3-methoxypropyl)-1-(3-acetoxypropyl)]amidosulfonyl]phenyl}-3-n-propyl-1,6-dihydro-7H-pyrazolo[4,3-d]pyrimidin-7-one]	77.9 ± 2.3	4.69	8.27	8.27	0	0	6.69	37.6
